Measured values from PMC7614683, “A small molecule PI3Kα activator for cardioprotection and neuroregeneration” (Nature, 2023).

Test system: adult rat DRG neurons
Test: Neurite outgrowth in dissociated adult rat dorsal root ganglion cultures
Type: cell-based
Conditions: 72h; BYL719 500 nM with 1938 above 10^-7 M
Text: Dissociated adult rat dorsal root ganglion (DRG) cultures were used as an in vitro model for neuroregeneration[80],[81]. DRG neurons were isolated from adult male (>250g) Wistar rats as described, with DRGs from each rat cultured separately. Following culling via schedule 1 (rising concentration of CO2), the spinal column was removed and stored in PBS on ice. Cord tissue was removed to expose the DRGs and roots in the intervertebral foramen and the DRGs removed with forceps and scalpel under a dissecting microscope (Olympus SZ40). DRGs were manually cleaned by removal of roots, capsule and capillaries with forceps and then placed in DMEM supplemented with P/S. DRGs were treated with 0.125% collagenase type IV solution at 37°C for 90 min, and then mechanically dissociated by trituration using a 1 ml pipette. The collagenase solution was removed by 2 rounds of centrifugation in complete DMEM (DMEM with 1% P/S and 10% FBS) at 400 xg for 5 min, followed by resuspension of the DRG cell pellet in complete DMEM supplemented with 0.01 mM cytosine arabinoside. DRGs were plated in 75-cm[2] flasks coated with 0.1 mg/ml poly-D-lysine and incubated at 37°C, 5% CO2. […] 9 fields per well were captured and analysed using the CSIRO Neurite Analysis 2 […] in Columbus analysis software (Perkin Elmer). […]

CCN1CCN(c2ccc(Nc3cc(Nc4cccc5c4N(C(C)=O)CC5)ccn3)cc2)CC1 [Compound 1938]
neurite outgrowth (total length of neurites): doubling the total length of neurites
